Legend:
[1] = tested on: TT (RET C634W) cells; assay: Cell proliferation assay (MTS), TT cells; format: cell-based; conditions: Homo sapiens, TT, 72 h, 72 h incubation, MTS readout
Protocol: (§1) MTS testing kit was purchased from Promega. The RPMI-1640, F12, F12K, Fetal bovine serum and Penicillin-Streptomycin were purchased from BI. Glutamine and Dimethyl sulfoxide (DMSO) were purchased from Sigma. TT cells were cultured in F12K supplemented with 10% FBS and LC-2/ad cells were cultured in HamF12: RPMI1640 (1:1) supplemented with 10% FBS and 2 mM Glutamine.
(§2) To investigate whether a compound is able to inhibit the activity of RET fusion and/or mutation in cells, a mechanism-based assay using TT (RET C634W) and LC-2/ad (CCDCl6-RET) cell lines was developed. In this assay, the inhibition of RET fusion and/or mutation was reflected by the inhibition of cell proliferation of TT and LC-2/ad cells. Cells were plated into 96-well plates at the optimized cell density (TT: 5000 cells/well; LC-2/ad: 5000 cells/well). Plates were incubated at 37° C., with 5% CO2 for 24 h. Compounds were serially diluted and added to the plates with the final concentrations as 10000, 3333.3, 1111.1, […], 123.5, 41.2, 13.7, 4.6 and 1.5 nM. Plates were incubated at 37° C., with 5% CO2 for 72 h. An aliquot of 20 μL MTS/100 μL medium mixture solution were added to each well and the plates were incubated for exactly 2 h. The reaction was stopped by adding 25 μL 10% SDS to each well. The absorbance was measured by a microplate reader at 490 nm and 650 nm (reference wavelength). IC50 was calculated using GraphPad Prism 5.0.

[2] = tested on: LC-2/ad (CCDCl6-RET) cells; assay: Cell proliferation assay (MTS), LC-2/ad cells; format: cell-based; conditions: Homo sapiens, LC-2-ad, 72 h, LC-2/ad cells (CCDCl6-RET), 72 h incubation, MTS readout
Protocol: as §1, §2

| Compound | IC50 [1] [µM] | IC50 [2] [µM] |
| --- | --- | --- |
| COc1ccc(C(=O)N2CCN(c3ccc(-c4cc(-c5cnn(C)c5)cc5ncc(C#N)n45)cn3)CC2)cn1 [Example 2, 5-(6-(4-(6-Methoxynicotinoyl)piperazin-1-yl)pyridin-3-yl)-7-(1-methyl-1H-pyrazol-4-yl)imidazo[1,2-a]pyridine-3-carbonitrile] | 0.063 | 0.054 |
| Cc1cccc(CN2CCN(c3ccc(-c4cc(-c5cnn(C)c5)cc5ncc(C#N)n45)cn3)CC2)n1 [Example 5, 7-(1-methyl-1H-pyrazol-4-yl)-5-(6-(4-((6-methylpyridin-2-yl)methyl)pi-perazin-1-yl)pyridin-3-yl)imidazo[1,2-a]pyridine-3-carbonitrile] | 0.071 | 0.08 |
| COc1ccc(CN2CCN(c3ccc(-c4cc(-c5cnn(C)c5)cc5ncc(C#N)n45)cn3)CC2)cn1 [Example 6, 5-(6-(4-((6-methoxypyridin-3-yl)meth-yl)piperazin-1-yl)pyridin-3-yl)-7-(1-methyl-1H-pyrazol-4-yl)imidazo[1,2-a]pyridine-3-carbonitrile] | 0.042 | 0.044 |
| Cn1cc(-c2cc(-c3ccc(N4CCN(C(=O)[C@H](O)c5ccccc5)CC4)nc3)n3c(C#N)cnc3c2)cn1 [Example 7, (R)-5-(6-(4-(2-hydroxy-2-phenylace-tyl)piperazin-1-yl)pyridin-3-yl)-7-(1-methyl-1H-pyrazol-4-yl)imidazo[1,2-a]pyridine-3-carbonitrile] | 0.011 | 0.016 |
| CO[C@@H](C(=O)N1CCN(c2ccc(-c3cc(-c4cnn(C)c4)cc4ncc(C#N)n34)cn2)CC1)c1ccccc1 [Example 14, (R)-5-(6-(4-(2-methoxy-2-phenylace-tyl)piperazin-1-yl)pyridin-3-yl)-7-(1-methyl-1H-pyrazol-4-yl)imidazo[1,2-a]pyridine-3-carbonitrile] | 0.006 | 0.013 |
| CC(C)[C@@H](O)C(=O)N1CCN(c2ccc(-c3cc(-c4cnn(C)c4)cc4ncc(C#N)n34)cn2)CC1 [Example 17, (R)-5-(6-(4-(2-hydroxy-3-methylbuta-noyl)piperazin-1-yl)pyridin-3-yl)-7-(1-methyl-1H-pyrazol-4-yl)imidazo [1,2-a]pyridine-3-carbonitrile] | 0.048 | 0.045 |
| Cn1cc(-c2cc(-c3ccc(N4CCC(Oc5ccccn5)CC4)nc3)n3c(C#N)cnc3c2)cn1 [Example 18, 7-(1-methyl-1H-pyrazol-4-yl)-5-(6-(4-(pyridin-2-yloxy)piperidin-1-yl)pyr-idin-3-yl)imidazo[1,2-a]pyridine-3-carbonitrile] | 0.001 | 0.002 |
| COc1ccc(OC2CCN(c3ccc(-c4cc(-c5cnn(C)c5)cc5ncc(C#N)n45)cn3)CC2)nn1 [Example 19, 5-(6-(4-((6-methoxypyridazin-3-yl)oxy)piperidin-1-yl)pyridin-3-yl)-7-(1-methyl-1H-pyrazol-4-yl)imidazo[1,2-a]pyridine-3-carbonitrile] | 0.001 | 0.006 |
| Cc1ccc(OC2CCN(c3ccc(-c4cc(-c5cnn(C)c5)cc5ncc(C#N)n45)cn3)CC2)nn1 [Example 20, 7-(1-methyl-1H-pyrazol-4-yl)-5-(6-(4-((6-methylpyridazin-3-yl)oxy)piper-idin-1-yl)pyridin-3-yl)imidazo[1,2-a]pyridine-3-carbonitrile] | 0.006 | 0.017 |
| Cn1cc(-c2cc(-c3ccc(N4CCC(O)(Cc5ccccn5)CC4)nc3)n3c(C#N)cnc3c2)cn1 [Example 21, 5-(6-(4-hydroxy-4-(pyridin-2-ylmeth-yl)piperidin-1-yl)pyridin-3-yl)-7-(1-methyl-1H-pyrazol-4-yl)imidazo[1,2-a]pyridine-3-carbonitrile] | 0.012 | 0.012 |
| Cn1cc(-c2cc(-c3ccc(N4CCC(O)(Cc5ccccc5)CC4)nc3)n3c(C#N)cnc3c2)cn1 [Example 22, 5-(6-(4-benzyl-4-hydroxypiperidin-1-yl)pyridin-3-yl)-7-(1-methyl-1H-pyr-azol-4-yl)imidazo[1,2-a]pyridine-3-carbonitrile] | 0.004 | 0.001 |
| COc1ccc(CN2CCN(c3ccc(-c4cc(-c5cnn(CCN6CCOCC6)c5)cc5ncc(C#N)n45)cn3)CC2)cn1 [Example 26, 5-(6-(4-((6-methoxypyridin-3-yl)meth-yl)piperazin-1-yl)pyridin-3-yl)-7-(1-(2-morpholinoethyl)-1H-pyrazol-4-yl)imidazo[1,2-a]pyridine-3-carbonitrile] | 0.074 | 0.089 |
| COc1ccc(CN2CCN(c3ccc(-c4cc(-c5cnn(CCOC(C)C)c5)cc5ncc(C#N)n45)cn3)CC2)cn1 [Example 27, 7-(1-(2-isopropoxyethyl)-1H-pyrazol-4-yl)-5-(6-(4-((6-methoxypyridin-3-yl)methyl)piperazin-1-yl)pyridin-3-yl) imidazo[1,2-a]pyridine-3-carbonitrile] | 0.065 | 0.039 |
| Cn1cc(-c2cc(-c3ccc(N4CCN(Cc5ccccc5)CC4)nc3)n3c(C#N)cnc3c2)cn1 [Example 33, 5-(6-(4-benzylpiperazin-1-yl)pyridin-3-yl)-7-(1-methyl-1H-pyrazol-4-yl) imidazo[1,2-a]pyridine-3-carbonitrile] | 0.034 | 0.017 |
| Cn1cc(-c2cc(-c3ccc(N4CCN(Cc5ccn(C)n5)CC4)nc3)n3c(C#N)cnc3c2)cn1 [Example 37, 5-(6-(4-((1-methyl-1H-pyrazol-3-yl)methyl)piperazin-1-yl)pyridin-3-yl)-7-(1-methyl-1H-pyrazol-4-yl)imidazo [1,2-a]pyridine-3-carbonitrile] | 0.045 | 0.041 |
| Cn1cc(-c2cc(-c3ccc(N4CCN(CCS(=O)(=O)c5ccccc5)CC4)nc3)n3c(C#N)cnc3c2)cn1 [Example 38, 7-(1-methyl-1H-pyrazol-4-yl)-5-(6-(4-(2-(phenylsulfonyl)ethyl)piperazin-1-yl)pyridin-3-yl)imidazo[1,2-a]pyr-idine-3-carbonitrile] | 0.038 | 0.034 |
| Cn1cc(-c2cc(-c3ccc(N4CCN(C(=O)Cc5ccccn5)CC4)cc3)n3c(C#N)cnc3c2)cn1 [Example 45, 7-(1-methyl-1H-pyrazol-4-yl)-5-(4-(4-(2-(pyridin-2-yl)acetyl)piperazin-1-yl)phenyl)imidazo[1,2-a]pyridine-3-carbonitrile] | 0.066 | 0.05 |
| Cn1cc(-c2cc(-c3ccc(N4CCN(C(=O)Cc5ccccn5)CC4)nc3)n3c(C#N)cnc3c2)cn1 [Example 46, 7-(1-methyl-1H-pyrazol-4-yl)-5-(6-(4-(2-(pyridin-2-yl)acetyl)piperazin-1-yl)pyridin-3-yl)imidazo[1,2-a]pyri-dine-3-carbonitrile] | 0.037 | 0.036 |
| CC(C)CC(=O)N1CCN(c2ccc(-c3cc(-c4cnn(C)c4)cc4ncc(C#N)n34)cn2)CC1 [Example 48, 7-(1-methyl-1H-pyrazol-4-yl)-5-(6-(4-(3-methylbutanoyl)piperazin-1-yl)pyridin-3-yl)imidazo[1,2-a]pyridine-3-carbonitrile] | 0.077 | 0.05 |
| COC(CNC(=O)N1CCN(c2ccc(-c3cc(-c4cnn(C)c4)cc4ncc(C#N)n34)cn2)CC1)C(C)C (stereo not shown) [Example 50, 4-(5-(3-cyano-7-(1-methyl-1H-pyrazol-4-yl)imidazo[1,2-a]pyridin-5-yl)pyridin-2-yl)-N-(2-methoxy-3-methyl-butyl)piperazine-1-carboxamide] | 0.014 | 0.03 |
| CC(C)OCCN1CCN(c2ccc(-c3cc(-c4cnn(C)c4)cc4ncc(C#N)n34)cn2)CC1 [Example 51, 5-(6-(4-(2-isopropoxyethyl)piperazin-1-yl)pyridin-3-yl)-7-(1-methyl-1H-pyrazol-4-yl)imidazo[1,2-a]pyridine-3-carbonitrile] | 0.044 | 0.04 |
| Cn1cc(-c2cc(-c3ccc(N4CCN(Cc5ccccn5)CC4)nc3)n3c(C#N)cnc3c2)cn1 [Example 52, 7-(1-methyl-1H-pyrazol-4-yl)-5-(6-(4-(pyridin-2-ylmethyl)piperazin-1-yl)pyridin-3-yl)imidazo[1,2-a]pyridine-3-carbonitrile] | 0.024 | 0.042 |
| COc1ccc(O[C@@H]2CCN(c3ccc(-c4cc(OCC(C)(C)O)cc5ncc(C#N)n45)cn3)C2)cn1 [Example 95, (R)-7-(2-hydroxy-2-methylpropoxy)-5-(6-(3-((6-methoxypyridin-3-yl)oxy)pyrrolidin-1-yl)pyridin-3-yl)imidazo[1,2-a]pyridine-3-carbonitrile] | 0.007 |  |
| COc1ccc(O[C@@H]2CCN(c3ccc(-c4cc(OCC5(O)CC5)cc5ncc(C#N)n45)cn3)C2)cn1 [Example 96, (R)-7-((1-hydroxycyclopropyl)methoxy)-5-(6-(3-((6-methoxypyridin-3-yl)oxy)pyr-rolidin-1-yl)pyridin-3-yl)imidazo[1,2-a] pyridine-3-carbonitrile] | 0.009 |  |

Reference: patent US20220041588A1, “SUBSTITUTED IMIDAZO[1,2-A]PYRIDINE AND [1,2,4]TRIAZOLO[1,5-A]PYRIDINE COMPOUNDS AS RET KINASE INHIBITORS” (FOCHON PHARMACEUTICALS, LTD., priority 2018, published 2022)
